The target of test [1] is T1, Serine/threonine-protein kinase Nek2 (Homo sapiens) (UniProt P51955).
T1 sequence (whole entry): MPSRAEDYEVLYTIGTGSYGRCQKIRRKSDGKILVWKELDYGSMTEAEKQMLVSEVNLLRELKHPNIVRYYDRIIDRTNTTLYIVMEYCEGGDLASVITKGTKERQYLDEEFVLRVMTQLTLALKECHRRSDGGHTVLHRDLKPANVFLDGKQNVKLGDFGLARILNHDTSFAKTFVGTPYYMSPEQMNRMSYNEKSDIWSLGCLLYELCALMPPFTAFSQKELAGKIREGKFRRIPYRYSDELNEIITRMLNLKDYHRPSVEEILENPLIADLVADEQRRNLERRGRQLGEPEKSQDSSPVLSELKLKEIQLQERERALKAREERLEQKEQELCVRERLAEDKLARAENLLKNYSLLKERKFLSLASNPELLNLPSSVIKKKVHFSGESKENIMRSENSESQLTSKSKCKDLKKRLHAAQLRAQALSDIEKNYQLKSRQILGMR
The test can be described thus: Inhibition of human NEK2 at 18.6 nM by HotSpot assay relative to control.

Test [2] deals with Ribosomal protein S6 kinase beta-2 (Homo sapiens) (UniProt Q9UBS0). The test can be described thus: Inhibition of human RPS6KB2 at 18.6 nM by HotSpot assay relative to control.
Ribosomal protein S6 kinase beta-2 (Homo sapiens), sequence (Q9UBS0 whole entry): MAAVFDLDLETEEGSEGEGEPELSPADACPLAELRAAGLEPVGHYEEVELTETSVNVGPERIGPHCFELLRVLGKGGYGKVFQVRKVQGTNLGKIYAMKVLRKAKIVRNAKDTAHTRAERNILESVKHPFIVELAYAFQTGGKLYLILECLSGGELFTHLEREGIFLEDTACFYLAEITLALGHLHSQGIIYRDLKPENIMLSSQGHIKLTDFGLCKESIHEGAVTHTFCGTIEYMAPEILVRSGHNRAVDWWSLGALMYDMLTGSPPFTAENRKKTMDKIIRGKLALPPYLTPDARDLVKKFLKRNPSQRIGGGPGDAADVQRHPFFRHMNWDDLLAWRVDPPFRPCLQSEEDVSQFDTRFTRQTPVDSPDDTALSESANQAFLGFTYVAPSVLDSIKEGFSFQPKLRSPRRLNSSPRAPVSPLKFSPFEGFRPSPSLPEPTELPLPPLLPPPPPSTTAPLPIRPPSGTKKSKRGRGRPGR
The target in test [3] is T2, Serine/threonine-protein kinase haspin (Homo sapiens) (UniProt Q8TF76).
T2 sequence (whole entry): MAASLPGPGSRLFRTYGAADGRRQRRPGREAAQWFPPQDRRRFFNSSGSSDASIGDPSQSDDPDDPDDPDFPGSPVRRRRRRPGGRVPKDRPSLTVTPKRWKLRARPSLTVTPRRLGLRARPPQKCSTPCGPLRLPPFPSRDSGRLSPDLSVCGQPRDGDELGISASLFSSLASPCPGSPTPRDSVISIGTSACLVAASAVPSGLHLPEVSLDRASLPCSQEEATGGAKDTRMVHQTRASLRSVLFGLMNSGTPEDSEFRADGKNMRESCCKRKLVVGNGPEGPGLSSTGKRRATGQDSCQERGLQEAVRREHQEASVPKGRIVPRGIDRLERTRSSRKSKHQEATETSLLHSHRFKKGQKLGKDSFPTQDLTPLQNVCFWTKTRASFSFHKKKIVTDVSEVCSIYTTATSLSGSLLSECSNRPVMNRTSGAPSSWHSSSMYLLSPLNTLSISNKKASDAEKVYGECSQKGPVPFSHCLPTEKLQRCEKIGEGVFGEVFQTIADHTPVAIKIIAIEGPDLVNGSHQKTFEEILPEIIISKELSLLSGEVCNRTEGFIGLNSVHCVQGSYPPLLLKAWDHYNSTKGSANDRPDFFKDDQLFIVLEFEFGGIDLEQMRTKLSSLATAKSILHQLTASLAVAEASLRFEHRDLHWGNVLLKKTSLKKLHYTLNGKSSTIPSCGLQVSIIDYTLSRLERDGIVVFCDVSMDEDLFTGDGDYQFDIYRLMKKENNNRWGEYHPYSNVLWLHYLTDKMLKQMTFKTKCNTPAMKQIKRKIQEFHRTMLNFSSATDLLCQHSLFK
The test can be described thus: Inhibition of human Haspin at 18.6 nM by HotSpot assay relative to control.

The target in test [4] is T3, Inhibitor of nuclear factor kappa-B kinase subunit beta (Homo sapiens) (UniProt O14920).
T3 sequence (whole entry): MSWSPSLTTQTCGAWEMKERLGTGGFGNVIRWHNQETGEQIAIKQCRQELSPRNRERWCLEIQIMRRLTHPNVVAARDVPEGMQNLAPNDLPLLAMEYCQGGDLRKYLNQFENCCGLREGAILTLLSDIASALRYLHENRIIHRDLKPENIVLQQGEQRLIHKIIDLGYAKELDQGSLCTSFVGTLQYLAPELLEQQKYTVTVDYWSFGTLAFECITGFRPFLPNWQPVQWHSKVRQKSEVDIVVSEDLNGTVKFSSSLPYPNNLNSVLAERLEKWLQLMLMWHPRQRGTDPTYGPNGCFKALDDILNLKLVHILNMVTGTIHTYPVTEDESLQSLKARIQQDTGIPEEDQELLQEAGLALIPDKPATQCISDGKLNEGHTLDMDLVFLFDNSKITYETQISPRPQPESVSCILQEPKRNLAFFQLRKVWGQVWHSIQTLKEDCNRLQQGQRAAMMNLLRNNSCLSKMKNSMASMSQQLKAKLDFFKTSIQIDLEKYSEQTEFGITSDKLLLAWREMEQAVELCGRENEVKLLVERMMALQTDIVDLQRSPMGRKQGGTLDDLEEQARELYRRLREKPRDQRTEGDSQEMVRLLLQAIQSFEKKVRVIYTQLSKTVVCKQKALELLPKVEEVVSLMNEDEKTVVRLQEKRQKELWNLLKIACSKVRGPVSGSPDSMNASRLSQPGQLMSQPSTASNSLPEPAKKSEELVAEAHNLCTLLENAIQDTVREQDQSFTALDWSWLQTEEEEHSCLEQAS
Put plainly: Inhibition of human IKKb at 500 nM by HotSpot assay relative to control.

The target in test [5] is RAC-gamma serine/threonine-protein kinase (Homo sapiens) (UniProt Q9Y243). Put plainly: Inhibition of human AKT3 at 1.82 nM by HotSpot assay relative to control.
RAC-gamma serine/threonine-protein kinase (Homo sapiens), sequence (Q9Y243 whole entry): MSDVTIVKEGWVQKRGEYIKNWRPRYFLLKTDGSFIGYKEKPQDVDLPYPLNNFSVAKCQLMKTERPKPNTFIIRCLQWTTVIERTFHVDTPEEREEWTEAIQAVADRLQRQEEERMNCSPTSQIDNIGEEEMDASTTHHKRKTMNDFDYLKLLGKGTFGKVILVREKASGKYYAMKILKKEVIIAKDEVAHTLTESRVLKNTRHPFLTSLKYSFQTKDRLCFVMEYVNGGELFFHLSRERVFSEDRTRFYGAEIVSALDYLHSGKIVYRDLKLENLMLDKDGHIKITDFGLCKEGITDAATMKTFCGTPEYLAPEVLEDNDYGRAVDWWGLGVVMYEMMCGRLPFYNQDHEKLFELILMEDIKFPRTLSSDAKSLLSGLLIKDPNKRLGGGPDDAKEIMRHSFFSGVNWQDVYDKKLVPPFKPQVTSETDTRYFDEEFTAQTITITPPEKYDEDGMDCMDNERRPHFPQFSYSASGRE
Test [6] deals with Dual specificity tyrosine-phosphorylation-regulated kinase 1A (Homo sapiens) (UniProt Q13627). The test can be described thus: Inhibition of human DYRK1 at 1.82 nM by HotSpot assay relative to control.
The target in test [7] is Vascular endothelial growth factor receptor 1 (Homo sapiens) (UniProt P17948). Put plainly: Inhibition of human FLT1 at 1.82 nM by HotSpot assay relative to control.
Vascular endothelial growth factor receptor 1 (Homo sapiens), sequence (P17948 whole entry): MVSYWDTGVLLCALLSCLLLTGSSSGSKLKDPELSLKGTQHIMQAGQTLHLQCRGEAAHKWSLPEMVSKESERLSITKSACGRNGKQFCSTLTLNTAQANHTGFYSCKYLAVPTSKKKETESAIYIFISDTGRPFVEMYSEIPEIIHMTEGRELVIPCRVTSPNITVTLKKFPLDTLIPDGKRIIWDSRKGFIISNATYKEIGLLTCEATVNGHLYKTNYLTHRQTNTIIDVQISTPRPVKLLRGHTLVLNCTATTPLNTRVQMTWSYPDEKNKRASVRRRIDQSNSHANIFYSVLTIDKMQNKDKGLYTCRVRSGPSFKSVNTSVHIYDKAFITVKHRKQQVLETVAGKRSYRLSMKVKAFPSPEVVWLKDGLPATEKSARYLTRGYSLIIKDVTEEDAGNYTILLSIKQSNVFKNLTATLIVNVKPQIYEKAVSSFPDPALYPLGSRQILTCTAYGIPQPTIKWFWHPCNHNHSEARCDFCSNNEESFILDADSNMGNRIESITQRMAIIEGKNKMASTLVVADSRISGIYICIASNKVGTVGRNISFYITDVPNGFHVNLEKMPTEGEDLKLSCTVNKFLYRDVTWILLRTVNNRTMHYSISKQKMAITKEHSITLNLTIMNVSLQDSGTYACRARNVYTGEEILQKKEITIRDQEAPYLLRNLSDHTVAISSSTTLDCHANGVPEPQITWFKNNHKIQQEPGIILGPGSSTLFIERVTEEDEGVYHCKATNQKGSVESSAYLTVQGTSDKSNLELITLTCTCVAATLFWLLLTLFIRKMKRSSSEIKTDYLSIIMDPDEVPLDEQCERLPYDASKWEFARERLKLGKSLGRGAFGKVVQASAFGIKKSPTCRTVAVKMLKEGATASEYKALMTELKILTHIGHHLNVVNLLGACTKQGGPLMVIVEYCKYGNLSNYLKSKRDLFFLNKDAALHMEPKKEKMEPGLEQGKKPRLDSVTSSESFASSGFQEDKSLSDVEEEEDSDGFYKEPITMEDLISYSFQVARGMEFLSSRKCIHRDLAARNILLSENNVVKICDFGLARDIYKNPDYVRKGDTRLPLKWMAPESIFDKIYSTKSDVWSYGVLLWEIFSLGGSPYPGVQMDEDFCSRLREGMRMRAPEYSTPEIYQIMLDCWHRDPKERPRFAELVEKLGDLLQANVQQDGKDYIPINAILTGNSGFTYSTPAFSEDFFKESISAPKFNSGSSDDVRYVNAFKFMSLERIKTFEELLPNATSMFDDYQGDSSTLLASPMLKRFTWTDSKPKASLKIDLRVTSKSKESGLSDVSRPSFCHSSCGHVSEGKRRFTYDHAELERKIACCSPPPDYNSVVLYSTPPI
Test [8] addresses T4, cAMP-dependent protein kinase catalytic subunit PRKX (Homo sapiens) (UniProt P51817).
T4 sequence (whole entry): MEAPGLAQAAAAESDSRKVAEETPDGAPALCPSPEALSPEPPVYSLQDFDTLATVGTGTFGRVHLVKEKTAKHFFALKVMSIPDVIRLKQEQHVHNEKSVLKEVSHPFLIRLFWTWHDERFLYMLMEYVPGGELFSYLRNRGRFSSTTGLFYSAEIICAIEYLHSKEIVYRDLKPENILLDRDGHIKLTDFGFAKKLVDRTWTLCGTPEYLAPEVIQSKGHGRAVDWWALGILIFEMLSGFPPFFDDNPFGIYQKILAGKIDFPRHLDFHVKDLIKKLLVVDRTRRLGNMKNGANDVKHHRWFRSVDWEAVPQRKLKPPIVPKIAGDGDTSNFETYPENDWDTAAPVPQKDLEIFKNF
The test can be described thus: Inhibition of human PRKX at 1.82 nM by HotSpot assay relative to control.

Test [9] addresses Glycogen synthase kinase-3 beta (Homo sapiens) (UniProt P49841). Put plainly: Inhibition of human GSK3b at 1.82 nM by HotSpot assay relative to control.

The values that follow come from ChEMBL document CHEMBL5653615 (J Biol Chem, 2013).

Glycogen synthase kinase-3 beta (Homo sapiens), sequence (P49841 whole entry, looked up): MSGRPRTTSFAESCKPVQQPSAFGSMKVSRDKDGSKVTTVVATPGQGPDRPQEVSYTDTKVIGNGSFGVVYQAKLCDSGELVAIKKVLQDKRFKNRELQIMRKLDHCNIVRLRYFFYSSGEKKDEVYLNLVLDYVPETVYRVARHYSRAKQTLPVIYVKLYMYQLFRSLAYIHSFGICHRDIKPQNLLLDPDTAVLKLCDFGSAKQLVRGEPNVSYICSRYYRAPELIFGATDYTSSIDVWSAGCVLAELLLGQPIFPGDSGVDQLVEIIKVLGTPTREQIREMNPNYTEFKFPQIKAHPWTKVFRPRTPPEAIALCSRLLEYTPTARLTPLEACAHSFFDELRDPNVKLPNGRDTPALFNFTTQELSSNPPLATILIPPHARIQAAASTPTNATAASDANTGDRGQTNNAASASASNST

For `C[C@]1(O)C[C@@H](c2nc(-c3ccc4ccc(-c5ccccc5)nc4c3)c3c(N)nccn32)C1`, the inhibition in [1] is 4.82%; in test [2] it was 0.94%; in [3] it was -1.76%.
Consider `Oc1n[nH]c2nnc(-c3c(-c4ccccc4)nn4ccccc34)cc12`, for which the inhibition in test [4] is -0.37%.
Turning to `C[C@@]1(C(=O)Nc2ccc(F)nc2)CCCN1c1nc(Nc2cc(C3CC3)n[nH]2)c2cccn2n1`, the inhibition in test [5] is 2.34%; in test [6], -3.18%; in [7] it was -4.89%; in [8] it was 0.19%; in test [9] it was 34.6%.

The inhibition is the relative decrease from the control value, in per cent.
